Experimental data: publication PMC4685510, “A Cell Biologist’s Field Guide to Aurora Kinase Inhibitors” (Frontiers in Oncology, 2015)

Assays:
Test in all cases: biochemical
Format in all cases: biochemical
[1] = biological target: 363 human kinases (including Aurora A/B/C) (Homo sapiens, UniProt P36894); details: ALK3/BMPR1A, [ATP] 1 µM; for remaining activity at 0.1 µM: 100 nM; for remaining activity at 0.1 µM / remaining activity at 0.5 µM: read-out: % Enzyme Activity (relative to DMSO controls)
Source text: (§1) However, the Aurora A/B selectivity ratios derived from our in vitro and in vivo data can be compared to prioritize inhibitors.

[2] = biological target: 363 human kinases (including Aurora A/B/C) (Homo sapiens, UniProt P37023); details: ALK1/ACVRL1, [ATP] 100 µM; for remaining activity at 0.1 µM: 100 nM; for remaining activity at 0.1 µM / remaining activity at 0.5 µM: read-out: % Enzyme Activity (relative to DMSO controls)
Source text: as §1

[3] = biological target: 363 human kinases (including Aurora A/B/C) (Homo sapiens, UniProt P68400); details: CK2a, [ATP] 20 µM, read-out: % Enzyme Activity (relative to DMSO controls); for remaining activity at 0.1 µM: 100 nM; for remaining activity at 0.5 µM: 500 nM
Source text: as §1

[4] = biological target: 363 human kinases (including Aurora A/B/C) (Homo sapiens, UniProt Q08345); details: DDR1, [ATP] 100 µM; for remaining activity at 0.1 µM: 100 nM; for remaining activity at 0.1 µM / remaining activity at 0.5 µM: read-out: % Enzyme Activity (relative to DMSO controls)
Source text: as §1

[5] = biological target: 363 human kinases (including Aurora A/B/C) (Homo sapiens, UniProt Q13153); details: PAK1; for remaining activity at 0.1 µM: 100 nM; for remaining activity at 0.1 µM / remaining activity at 0.5 µM: read-out: % Enzyme Activity (relative to DMSO controls)
Source text: as §1

[6] = biological target: 363 human kinases (including Aurora A/B/C) (Homo sapiens, UniProt Q16539); details: P38a/MAPK14; for remaining activity at 0.1 µM: 100 nM; for remaining activity at 0.1 µM / remaining activity at 0.5 µM: read-out: % Enzyme Activity (relative to DMSO controls)
Source text: as §1

[7] = biological target: 363 human kinases (including Aurora A/B/C) (Homo sapiens, UniProt Q8IU85); details: CAMK1d, [ATP] 2.5 µM; for remaining activity at 0.1 µM: 100 nM; for remaining activity at 0.1 µM / remaining activity at 0.5 µM: read-out: % Enzyme Activity (relative to DMSO controls)
Source text: as §1

[8] = biological target: T1, 363 human kinases (including Aurora A/B/C) (Homo sapiens, UniProt Q8IW41); details: MAPKAPK5/PRAK; for remaining activity at 0.1 µM: 100 nM; for remaining activity at 0.1 µM / remaining activity at 0.5 µM: read-out: % Enzyme Activity (relative to DMSO controls)
T1 sequence (Q8IW41 1-473): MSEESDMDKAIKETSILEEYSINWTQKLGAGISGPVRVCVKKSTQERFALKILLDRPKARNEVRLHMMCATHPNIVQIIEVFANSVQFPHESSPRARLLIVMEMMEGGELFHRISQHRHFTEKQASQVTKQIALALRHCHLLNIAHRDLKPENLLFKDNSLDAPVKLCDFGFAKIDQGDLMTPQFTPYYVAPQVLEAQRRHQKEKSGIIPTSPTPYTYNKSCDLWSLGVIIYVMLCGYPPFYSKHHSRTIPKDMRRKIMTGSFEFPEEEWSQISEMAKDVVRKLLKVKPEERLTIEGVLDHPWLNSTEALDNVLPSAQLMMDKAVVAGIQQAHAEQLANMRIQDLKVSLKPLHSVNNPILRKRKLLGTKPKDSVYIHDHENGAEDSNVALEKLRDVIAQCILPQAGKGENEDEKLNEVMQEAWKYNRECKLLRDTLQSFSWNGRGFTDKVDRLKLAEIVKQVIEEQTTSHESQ
Source text: as §1

[9] = biological target: T2, 363 human kinases (including Aurora A/B/C) (Homo sapiens, UniProt Q9H093); details: SNARK/NUAK2; for remaining activity at 0.1 µM: 100 nM; for remaining activity at 0.1 µM / remaining activity at 0.5 µM: read-out: % Enzyme Activity (relative to DMSO controls)
T2 sequence (Q9H093 1-628): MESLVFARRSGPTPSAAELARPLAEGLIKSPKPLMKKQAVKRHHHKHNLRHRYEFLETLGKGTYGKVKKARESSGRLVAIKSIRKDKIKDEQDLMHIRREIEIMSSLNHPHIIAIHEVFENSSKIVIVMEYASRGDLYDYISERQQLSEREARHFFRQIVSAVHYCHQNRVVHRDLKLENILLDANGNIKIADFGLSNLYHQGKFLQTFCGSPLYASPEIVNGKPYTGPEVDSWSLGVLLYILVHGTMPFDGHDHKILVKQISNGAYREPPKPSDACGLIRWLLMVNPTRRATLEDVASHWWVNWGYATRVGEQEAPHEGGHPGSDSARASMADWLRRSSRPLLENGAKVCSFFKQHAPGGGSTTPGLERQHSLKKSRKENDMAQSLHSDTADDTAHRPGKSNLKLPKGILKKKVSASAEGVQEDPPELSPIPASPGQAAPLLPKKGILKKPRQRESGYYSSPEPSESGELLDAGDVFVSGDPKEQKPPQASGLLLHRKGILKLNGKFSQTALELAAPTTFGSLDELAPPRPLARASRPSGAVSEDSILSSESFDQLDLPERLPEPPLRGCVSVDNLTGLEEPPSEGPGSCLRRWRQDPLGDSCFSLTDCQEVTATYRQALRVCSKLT
Source text: as §1

363 human kinases (including Aurora A/B/C) (Homo sapiens, UniProt Q08345), sequence (Q08345 19-913): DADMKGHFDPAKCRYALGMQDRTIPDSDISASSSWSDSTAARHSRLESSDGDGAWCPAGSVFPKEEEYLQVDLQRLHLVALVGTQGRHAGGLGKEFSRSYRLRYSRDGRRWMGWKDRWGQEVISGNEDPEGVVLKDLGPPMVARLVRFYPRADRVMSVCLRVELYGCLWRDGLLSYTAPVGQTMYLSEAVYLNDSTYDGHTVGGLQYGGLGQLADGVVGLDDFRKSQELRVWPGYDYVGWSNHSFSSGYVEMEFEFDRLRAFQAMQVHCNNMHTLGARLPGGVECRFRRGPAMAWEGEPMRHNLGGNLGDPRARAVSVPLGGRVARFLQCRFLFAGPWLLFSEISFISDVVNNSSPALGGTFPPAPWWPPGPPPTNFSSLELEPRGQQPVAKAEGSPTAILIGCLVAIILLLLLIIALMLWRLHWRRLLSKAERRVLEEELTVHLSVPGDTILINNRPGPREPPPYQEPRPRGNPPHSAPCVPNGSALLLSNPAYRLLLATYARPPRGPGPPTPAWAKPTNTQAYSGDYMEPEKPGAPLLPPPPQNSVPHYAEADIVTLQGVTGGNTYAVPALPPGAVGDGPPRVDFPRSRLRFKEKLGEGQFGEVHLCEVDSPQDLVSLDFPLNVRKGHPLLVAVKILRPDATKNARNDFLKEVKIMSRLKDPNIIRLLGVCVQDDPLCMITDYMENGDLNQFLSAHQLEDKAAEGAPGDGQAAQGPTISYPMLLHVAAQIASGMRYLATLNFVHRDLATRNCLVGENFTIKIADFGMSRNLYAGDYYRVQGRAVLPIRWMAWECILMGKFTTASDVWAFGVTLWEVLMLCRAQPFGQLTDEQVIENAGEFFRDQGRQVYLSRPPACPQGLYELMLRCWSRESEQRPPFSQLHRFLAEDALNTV
363 human kinases (including Aurora A/B/C) (Homo sapiens, UniProt P37023), sequence (P37023 22-503): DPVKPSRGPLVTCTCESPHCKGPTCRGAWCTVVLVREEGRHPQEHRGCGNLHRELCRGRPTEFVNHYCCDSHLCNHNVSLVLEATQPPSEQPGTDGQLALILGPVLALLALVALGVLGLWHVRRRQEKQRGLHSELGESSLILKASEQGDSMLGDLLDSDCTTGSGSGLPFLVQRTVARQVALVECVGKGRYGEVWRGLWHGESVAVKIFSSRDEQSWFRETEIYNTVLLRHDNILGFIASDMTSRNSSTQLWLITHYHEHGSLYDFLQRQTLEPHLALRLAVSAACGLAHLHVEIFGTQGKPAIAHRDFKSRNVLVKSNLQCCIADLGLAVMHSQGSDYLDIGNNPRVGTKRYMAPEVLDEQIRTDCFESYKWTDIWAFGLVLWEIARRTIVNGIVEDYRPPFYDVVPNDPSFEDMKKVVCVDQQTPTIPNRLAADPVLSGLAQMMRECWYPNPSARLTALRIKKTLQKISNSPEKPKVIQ
363 human kinases (including Aurora A/B/C) (Homo sapiens, UniProt P36894), sequence (P36894 24-532): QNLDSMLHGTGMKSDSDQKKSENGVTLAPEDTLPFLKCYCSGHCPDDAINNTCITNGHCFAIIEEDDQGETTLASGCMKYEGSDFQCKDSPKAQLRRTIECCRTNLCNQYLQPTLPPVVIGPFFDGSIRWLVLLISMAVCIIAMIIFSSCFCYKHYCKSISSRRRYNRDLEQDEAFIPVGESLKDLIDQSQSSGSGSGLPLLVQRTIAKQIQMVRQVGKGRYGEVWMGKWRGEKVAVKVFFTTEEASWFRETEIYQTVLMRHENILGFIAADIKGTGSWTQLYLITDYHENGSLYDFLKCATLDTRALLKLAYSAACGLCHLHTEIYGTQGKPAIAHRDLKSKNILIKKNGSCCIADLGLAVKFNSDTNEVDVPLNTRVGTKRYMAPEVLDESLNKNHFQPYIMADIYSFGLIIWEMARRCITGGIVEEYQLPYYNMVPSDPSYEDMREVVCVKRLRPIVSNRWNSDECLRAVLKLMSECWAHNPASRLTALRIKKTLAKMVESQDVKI
363 human kinases (including Aurora A/B/C) (Homo sapiens, UniProt Q13153), sequence (Q13153 whole entry): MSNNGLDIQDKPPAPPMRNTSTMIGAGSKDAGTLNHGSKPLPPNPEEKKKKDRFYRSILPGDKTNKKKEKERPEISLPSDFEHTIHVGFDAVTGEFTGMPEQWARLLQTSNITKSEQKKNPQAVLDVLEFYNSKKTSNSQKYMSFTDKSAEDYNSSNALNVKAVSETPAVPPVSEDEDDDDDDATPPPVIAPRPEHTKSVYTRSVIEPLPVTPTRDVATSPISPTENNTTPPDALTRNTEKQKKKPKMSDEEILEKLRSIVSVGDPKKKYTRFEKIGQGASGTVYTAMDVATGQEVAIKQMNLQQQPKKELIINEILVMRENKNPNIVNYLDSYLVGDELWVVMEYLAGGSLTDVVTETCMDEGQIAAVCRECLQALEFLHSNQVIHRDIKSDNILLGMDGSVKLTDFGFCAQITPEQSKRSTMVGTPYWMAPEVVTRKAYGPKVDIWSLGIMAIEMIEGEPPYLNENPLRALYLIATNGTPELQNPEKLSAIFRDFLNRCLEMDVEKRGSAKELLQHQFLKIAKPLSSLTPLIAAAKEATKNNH
363 human kinases (including Aurora A/B/C) (Homo sapiens, UniProt P68400), sequence (P68400 whole entry): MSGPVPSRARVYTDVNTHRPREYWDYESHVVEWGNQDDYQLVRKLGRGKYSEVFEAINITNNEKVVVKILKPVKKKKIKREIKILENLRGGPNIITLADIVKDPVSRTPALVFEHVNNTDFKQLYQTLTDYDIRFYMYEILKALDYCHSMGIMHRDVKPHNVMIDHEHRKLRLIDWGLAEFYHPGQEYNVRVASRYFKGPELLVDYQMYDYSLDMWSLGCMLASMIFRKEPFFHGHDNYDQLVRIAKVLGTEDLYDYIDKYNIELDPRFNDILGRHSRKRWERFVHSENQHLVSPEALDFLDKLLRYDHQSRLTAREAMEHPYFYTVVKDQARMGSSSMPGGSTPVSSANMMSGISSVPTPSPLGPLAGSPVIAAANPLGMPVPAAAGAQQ
363 human kinases (including Aurora A/B/C) (Homo sapiens, UniProt Q8IU85), sequence (Q8IU85 whole entry): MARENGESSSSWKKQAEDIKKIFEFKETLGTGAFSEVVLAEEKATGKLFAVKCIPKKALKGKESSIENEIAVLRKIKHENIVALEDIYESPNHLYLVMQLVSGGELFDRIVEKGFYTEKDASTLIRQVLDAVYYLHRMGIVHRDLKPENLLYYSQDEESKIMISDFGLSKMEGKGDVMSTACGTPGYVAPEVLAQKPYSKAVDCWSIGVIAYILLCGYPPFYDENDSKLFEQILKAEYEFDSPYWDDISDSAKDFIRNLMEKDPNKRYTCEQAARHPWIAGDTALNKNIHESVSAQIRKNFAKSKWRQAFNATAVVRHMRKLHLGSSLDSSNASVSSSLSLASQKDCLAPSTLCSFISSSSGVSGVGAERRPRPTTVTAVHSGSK
363 human kinases (including Aurora A/B/C) (Homo sapiens, UniProt Q16539), sequence (Q16539 whole entry): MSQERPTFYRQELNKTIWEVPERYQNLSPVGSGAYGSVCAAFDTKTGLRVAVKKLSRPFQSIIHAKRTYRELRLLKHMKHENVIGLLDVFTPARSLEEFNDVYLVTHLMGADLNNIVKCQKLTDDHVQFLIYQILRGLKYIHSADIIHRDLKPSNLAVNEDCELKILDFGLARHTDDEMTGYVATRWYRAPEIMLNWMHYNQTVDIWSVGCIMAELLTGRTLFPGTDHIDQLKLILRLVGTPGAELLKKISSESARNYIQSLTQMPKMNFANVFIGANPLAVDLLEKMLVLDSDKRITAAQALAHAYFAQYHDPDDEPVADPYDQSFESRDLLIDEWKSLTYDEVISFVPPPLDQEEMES

Q: Which remaining activity at 0.1 µM [1] does the source give for `CCn1cc(-c2ccnc3[nH]c(-c4cccc(CN(C)C)c4)cc23)c(-c2ccc(NC(=O)N(C)C)cc2)n1` [GSK1070916] here?
A: 87.6%

Q: What about the remaining activity at 0.1 µM [2] of the same compound?
A: 98.2%

Q: And the remaining activity at 0.1 µM [3]?
A: 99.6%

Q: And the remaining activity at 0.1 µM [4]?
A: 26.2%

Q: And the remaining activity at 0.1 µM [5]?
A: 81.9%

Q: What about the remaining activity at 0.1 µM [6] of the same compound?
A: 93.6%

Q: What about the remaining activity at 0.1 µM [7] of the same compound?
A: 111%

Q: And the remaining activity at 0.1 µM [8]?
A: 99.4%

Q: And the remaining activity at 0.1 µM [9]?
A: 88.7%

Q: With `O=C(O)[C@]1(Cc2cccc(Nc3nccs3)n2)CC[C@@H](Oc2cccc(Cl)c2F)CC1` [MK-5108] as the compound, how does the remaining activity at 0.1 µM [1] read?
A: 64.3%

Q: What about the remaining activity at 0.5 µM ([1]; 500 nM) of the same compound?
A: 49.6%

Q: And the remaining activity at 0.1 µM [2]?
A: 51.3%

Q: And the remaining activity at 0.5 µM ([2]; 500 nM)?
A: 36.5%

Q: What about the remaining activity at 0.1 µM [3] of the same compound?
A: 104%

Q: And the remaining activity at 0.5 µM [3]?
A: 105%

Q: What about the remaining activity at 0.1 µM [4] of the same compound?
A: 7.97%

Q: What about the remaining activity at 0.5 µM ([4]; 500 nM) of the same compound?
A: 1.89%

Q: And the remaining activity at 0.1 µM [5]?
A: 93.7%

Q: And the remaining activity at 0.5 µM ([5]; 500 nM)?
A: 81.2%

Q: What about the remaining activity at 0.1 µM [6] of the same compound?
A: 95.2%

Q: And the remaining activity at 0.5 µM ([6]; 500 nM)?
A: 101%

Q: And the remaining activity at 0.1 µM [7]?
A: 94.4%

Q: What about the remaining activity at 0.5 µM ([7]; 500 nM) of the same compound?
A: 114%

Q: What about the remaining activity at 0.1 µM [8] of the same compound?
A: 101%

Q: What about the remaining activity at 0.5 µM ([8]; 500 nM) of the same compound?
A: 101%

Q: And the remaining activity at 0.1 µM [9]?
A: 104%

Q: And the remaining activity at 0.5 µM ([9]; 500 nM)?
A: 70.8%

Q: Which results are given for `O=C(c1cccc(Cl)c1F)N1CCN(Cc2cccc(Nc3nccs3)n2)CC1` [MK-8745]?
A: % Enzyme Activity (relative to DMSO controls) ([1]; 500 nM): 83.31%; remaining activity at 0.5 µM ([1]; 500 nM): 84.6%; % Enzyme Activity (relative to DMSO controls) ([2]; 500 nM): 71.54%; remaining activity at 0.5 µM ([2]; 500 nM): 75.1%; remaining activity at 0.5 µM [3]: 91.9%; % Enzyme Activity (relative to DMSO controls) ([4]; 500 nM): 19.23%; remaining activity at 0.5 µM ([4]; 500 nM): 19.7%; % Enzyme Activity (relative to DMSO controls) ([5]; 500 nM): 85.62%; remaining activity at 0.5 µM ([5]; 500 nM): 87.5%; % Enzyme Activity (relative to DMSO controls) ([6]; 500 nM): 95.14%; remaining activity at 0.5 µM ([6]; 500 nM): 95.3%; % Enzyme Activity (relative to DMSO controls) ([7]; 500 nM): 112.12%; remaining activity at 0.5 µM ([7]; 500 nM): 114%; % Enzyme Activity (relative to DMSO controls) ([8]; 500 nM): 102.03%; remaining activity at 0.5 µM ([8]; 500 nM): 103%; % Enzyme Activity (relative to DMSO controls) ([9]; 500 nM): 85.75%; remaining activity at 0.5 µM ([9]; 500 nM): 88.1%
